Here are results for three compounds from article PMC8838534, “Unprecedented Epimerization of an Azithromycin Analogue: Synthesis, Structure and Biological Activity of 2′-Dehydroxy-5″-Epi-Azithromycin” (Molecules, 2022).

The test system of data set [1] is Escherichia coli (ATCC25922). Nature of the data set: Antimicrobial activity, CLSI broth microdilution MIC. The data set is classed as cell-based. The source says:
(§1) The Clinical and Laboratory Standards (CLSI) recommended procedure (Document M7-[…], Methods for Dilution Susceptibility Tests for Bacteria that Grow Aerobically) by broth microdilution was used to determine the antimicrobial activity of compounds against Escherichia coli (ATCC25922), Staphylococcus aureus (ATCC13709), Streptococcus pneumoniae (ATCC49619), Streptococcus pyogenes (ATCC700294), Moraxella catarrhalis (ATCC23246) and Haemophilus influenzae (ATCC49247). The minimum inhibitory concentration (MIC) is determined as the lowest concentration of compound that inhibited visible growth.

Data set [2] has as its system Haemophilus influenzae (ATCC49247). The description is as above. In kind it is cell-based. Particulars: read-out: MIC H. influenzae.
Source text: as §1

The subject of data set [3] is Moraxella catarrhalis (ATCC23246). The description is as above. The data set is classed as cell-based.
Source text: as §1

The subject of data set [4] is Staphylococcus aureus (ATCC13709). Described as above. The data set is classed as cell-based. As to conditions: read-out: MIC S. aureus.
Source text: as §1

Data set [5] concerns Streptococcus pneumoniae (ATCC49619). The data set is described as above. The data set is classed as cell-based. As to conditions: read-out: MIC S. penumoniae.
Source text: as §1

For data set [6], the system named is Streptococcus pyogenes (ATCC700294). The description is as above. In kind it is cell-based. As to conditions: read-out: MIC S. pyogenes.
Source text: as §1

In data set [7] the test system is neutrophil accumulation in BALF of cigarette-smoke-challenged mice. Nature of the data set: Cigarette-smoke-induced pulmonary inflammation. The data set is classed as in vivo, mouse. Particulars: oral dosing 2 h prior smoke challenge on each smoke day.
The test system of data set [8] is neutrophil accumulation in BALF of LPS-challenged BALB/cJ mice. Nature of the data set: LPS-induced pulmonary neutrophilia. Particulars: 200 mg/kg intraperitoneally 2 h prior LPS, BALF 24 h after LPS. In kind it is in vivo, mouse (BALB/cJ). As to the method: Vehicle, azithromycin, and compound 4 were administered intraperitoneally at a dose of 200 mg/kg (b.w.) to 10-week-old male BALB/cJ mice (Charles River, Lyon, France) 2 h before intranasal challenge with 2 μg of LPS from E. coli. Then, 24 h after LPS application animals were euthanized and bronchoalveolar lavage was performed. Total number of cells in BALF was counted with a hematological analyzer (Sysmex SF 3000, Sysmex Corp., Kobe, Japan). Percentages of neutrophils were determined by morphological examination of at least 200 cells on smears prepared by cytocentrifugation (Cytospin-3, Thermo Fisher Scientific Inc, Waltham, MA, USA) and stained with Kwik-Diff staining set (Thermo Fisher Scientific Inc., USA).
All values are presented as means ± S.E.M. To define statistically significant differences in cell numbers among vehicle-treated and macrolide-treated mice the data were subjected to one-way ANOVA followed by Dunnett’s Multiple Comparison Test using GraphPad Prism version 5.00 for Windows (GraphPad Software, San Diego, CA, USA). The level of significance was set at p < 0.05 in all cases.

A further data set concerns the target T1, recombinant human CYP1A2 (Homo sapiens, UniProt P05177).
T1 construct: purchased Cypex
T1 sequence (P05177 1-516): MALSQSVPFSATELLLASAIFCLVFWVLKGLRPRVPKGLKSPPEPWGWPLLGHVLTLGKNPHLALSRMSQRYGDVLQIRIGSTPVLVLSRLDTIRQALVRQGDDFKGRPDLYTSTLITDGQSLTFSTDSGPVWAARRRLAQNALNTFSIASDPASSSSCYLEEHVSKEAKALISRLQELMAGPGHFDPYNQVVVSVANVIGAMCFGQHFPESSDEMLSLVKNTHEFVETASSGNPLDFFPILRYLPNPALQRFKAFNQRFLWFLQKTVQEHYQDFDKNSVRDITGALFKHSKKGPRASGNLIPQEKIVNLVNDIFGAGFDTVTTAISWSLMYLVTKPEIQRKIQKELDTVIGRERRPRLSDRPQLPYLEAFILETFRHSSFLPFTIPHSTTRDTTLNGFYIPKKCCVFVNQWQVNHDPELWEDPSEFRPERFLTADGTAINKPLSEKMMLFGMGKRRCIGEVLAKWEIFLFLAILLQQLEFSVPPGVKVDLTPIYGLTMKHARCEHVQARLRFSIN
Kind of data set: In vitro cytochrome inhibition. In kind it is in vitro ADME. As to conditions: recombinant human CYP, fluorescent probe; read-out: IC50 inhibition of cytochrome 1A2. As to the method:
(§2) Test compounds were incubated using a concentration range from 0.1 to 100 µM with recombinant human CYP1A2, 2C9, 2C19, 2D6 and 3A4 (Cypex). The compounds were preincubated at 37 °C for 5 or 10 min with the CYP enzyme isoforms, in the presence of 50 mM phosphate buffer (pH 7.4) and fluorescent probes. The incubations were started by addition of a cofactor solution containing NADP, glucose 6-phosphate and glucose 6-phosphate dehydrogenase. The plates were incubated for 10 min at 37 °C reading the fluorescence signal on a plate reader throughout. The fluorescence data were then used to calculate the IC50 values for each compound.

The target in data set [9] is T2, recombinant human CYP2C19 (Homo sapiens, UniProt P33261).
T2 construct: purchased Cypex
Nature of the data set: In vitro cytochrome inhibition. In kind it is in vitro ADME. Particulars: recombinant human CYP, fluorescent probe; read-out: IC50 inhibition of cytochrome 2C19. As to the method:
as §2

A further data set addresses T3, recombinant human CYP2C9 (Homo sapiens, UniProt P11712).
T3 construct: purchased Cypex
Nature of the data set: In vitro cytochrome inhibition. The data set is classed as in vitro ADME. As to conditions: recombinant human CYP, fluorescent probe; read-out: IC50 inhibition of cytochrome 2C9. As to the method: as §2

The target in another data set is T4, recombinant human CYP2D6 (Homo sapiens, UniProt P10635).
T4 construct: purchased Cypex
Nature of the data set: In vitro cytochrome inhibition. The data set is classed as in vitro ADME. As to conditions: recombinant human CYP, fluorescent probe; read-out: IC50 inhibition of cytochrome 2D6. As to the method: as §2

The target of a further data set is T5, recombinant human CYP3A4 (Homo sapiens, UniProt P08684).
T5 construct: purchased Cypex
Kind of data set: In vitro cytochrome inhibition. In kind it is in vitro ADME. Particulars: recombinant human CYP, fluorescent probe; read-out: IC50 inhibition of cytochrome 3A4. The procedure:
as §2

A short description of data set [10]: Pharmacokinetics in mouse. The data set is classed as in vivo, Balb/c mice. As to the method:
(§3) Pharmacokinetic profiles were determined in male Balb/c mice and CD Sprague-Dawley rats (Charles River Laboratories, Germany), following single oral (p.o.) and single intravenous (i.v.) bolus administration. The compound was administered at a dose of […] i.v. and 10 mg/kg p.o. Blood was obtained by serial blood sampling from the tail vein over a range of time points up to 30 h postdose. Samples were extracted by protein precipitation and subjected to quantitative analysis by LC-MS/MS using compound-specific mass transitions. Drug concentration−time profiles were generated and noncompartmental PK analysis used to generate estimates of half-life, clearance, volume of distribution, and oral bioavailability.

Another data set is described as follows: Pharmacokinetics in rat. The data set is classed as in vivo, Sprague Dawley rats. The procedure:
as §3

The next data set in a line: Pharmacokinetics in dog. The data set is classed as in vivo, Beagle dogs.

Values after ≈ are worked out from the molar mass of the structure shown. Values joined by “and” are separate entries in the source; they are usually repeats but may differ in a detail not shown here. Equal entries are not always repeated.

T3 sequence (P11712 whole entry): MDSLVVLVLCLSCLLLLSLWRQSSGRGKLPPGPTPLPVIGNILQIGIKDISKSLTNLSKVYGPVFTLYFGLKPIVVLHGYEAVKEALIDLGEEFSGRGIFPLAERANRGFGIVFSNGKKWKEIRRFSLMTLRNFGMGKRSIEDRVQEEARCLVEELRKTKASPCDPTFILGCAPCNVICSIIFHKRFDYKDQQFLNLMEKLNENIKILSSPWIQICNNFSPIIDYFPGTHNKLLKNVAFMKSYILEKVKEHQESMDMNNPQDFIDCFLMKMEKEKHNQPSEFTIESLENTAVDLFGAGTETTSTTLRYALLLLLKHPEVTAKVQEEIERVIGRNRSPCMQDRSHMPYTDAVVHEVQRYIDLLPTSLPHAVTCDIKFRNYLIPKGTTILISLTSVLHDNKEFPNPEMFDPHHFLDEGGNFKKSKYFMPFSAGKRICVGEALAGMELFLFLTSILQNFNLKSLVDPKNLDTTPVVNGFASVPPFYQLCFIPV
T2 sequence (P33261 whole entry): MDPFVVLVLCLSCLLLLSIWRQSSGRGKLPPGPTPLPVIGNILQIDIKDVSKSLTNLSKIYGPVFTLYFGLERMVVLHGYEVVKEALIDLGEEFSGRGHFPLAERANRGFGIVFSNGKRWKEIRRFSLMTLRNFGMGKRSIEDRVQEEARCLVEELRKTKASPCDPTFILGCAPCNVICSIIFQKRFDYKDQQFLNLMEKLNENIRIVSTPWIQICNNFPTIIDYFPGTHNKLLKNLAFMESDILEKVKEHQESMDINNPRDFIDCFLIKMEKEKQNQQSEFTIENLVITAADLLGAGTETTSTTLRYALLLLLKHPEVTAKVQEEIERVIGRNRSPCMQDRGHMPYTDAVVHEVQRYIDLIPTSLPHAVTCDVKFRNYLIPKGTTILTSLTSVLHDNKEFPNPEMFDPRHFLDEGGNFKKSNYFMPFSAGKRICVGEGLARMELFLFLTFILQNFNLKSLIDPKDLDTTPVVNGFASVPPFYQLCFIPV
T5 sequence (P08684 whole entry): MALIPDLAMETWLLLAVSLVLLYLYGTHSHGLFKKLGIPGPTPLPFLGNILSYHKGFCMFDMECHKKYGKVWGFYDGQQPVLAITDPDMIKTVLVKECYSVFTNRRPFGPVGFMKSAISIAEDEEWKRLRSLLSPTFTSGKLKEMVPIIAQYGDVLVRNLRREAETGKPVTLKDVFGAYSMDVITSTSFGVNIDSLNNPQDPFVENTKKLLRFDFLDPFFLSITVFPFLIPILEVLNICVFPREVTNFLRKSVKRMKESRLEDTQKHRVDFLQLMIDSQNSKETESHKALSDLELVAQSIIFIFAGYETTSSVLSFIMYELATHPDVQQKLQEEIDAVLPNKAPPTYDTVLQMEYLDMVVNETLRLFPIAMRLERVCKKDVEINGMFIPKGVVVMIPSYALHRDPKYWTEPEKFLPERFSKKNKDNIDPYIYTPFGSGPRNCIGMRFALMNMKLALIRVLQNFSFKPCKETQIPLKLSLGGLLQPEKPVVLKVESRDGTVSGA
T4 sequence (P10635 whole entry): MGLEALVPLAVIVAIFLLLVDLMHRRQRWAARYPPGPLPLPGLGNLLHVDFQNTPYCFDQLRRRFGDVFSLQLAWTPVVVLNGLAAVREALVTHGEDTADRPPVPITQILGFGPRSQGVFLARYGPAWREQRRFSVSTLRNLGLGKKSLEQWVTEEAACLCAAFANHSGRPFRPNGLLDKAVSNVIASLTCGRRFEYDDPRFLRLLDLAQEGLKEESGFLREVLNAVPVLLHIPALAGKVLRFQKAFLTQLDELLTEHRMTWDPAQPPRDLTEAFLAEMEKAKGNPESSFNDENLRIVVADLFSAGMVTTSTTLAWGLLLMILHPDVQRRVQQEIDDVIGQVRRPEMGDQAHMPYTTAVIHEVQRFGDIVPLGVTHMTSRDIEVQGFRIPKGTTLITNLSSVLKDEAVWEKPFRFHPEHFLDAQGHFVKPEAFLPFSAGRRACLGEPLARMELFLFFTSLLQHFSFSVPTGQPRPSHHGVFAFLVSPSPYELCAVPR

For the compound `CC[C@H]1OC(=O)[C@H](C)[C@@H](O[C@H]2C[C@@](C)(OC)[C@@H](O)[C@H](C)O2)[C@H](C)[C@@H](O[C@@H]2O[C@H](C)C[C@H](N(C)C)[C@H]2O)[C@](C)(O)C[C@@H](C)CN(C)[C@H](C)[C@@H](O)[C@]1(C)O` [AZM, azithromycin], the MIC is 2 µg/mL (≈ 2.67 µM) in data set [1]; 2 µg/mL (≈ 2.67 µM) in [2]; under 0.125 µg/mL in [3]; 0.5 µg/mL (≈ 0.668 µM) in [4]; under 0.125 µg/mL in data set [5]; under 0.125 µg/mL in [6]. The “Neutrophil accumulation in BALF after cigarette-smoke challenge” value in [7] was “dose-dependently inhibited the accumulation of neutrophils”.

`CC[C@H]1OC(=O)[C@H](C)[C@@H](O[C@H]2C[C@@](C)(OC)[C@@H](O)[C@H](C)O2)[C@H](C)[C@@H](O[C@H]2C[C@@H](N(C)C)C[C@@H](C)O2)[C@](C)(O)C[C@@H](C)CN(C)[C@H](C)[C@@H](O)[C@]1(C)O` [compound 3, 2 ′-dehydroxy azithromycin]: the MIC in [1] was over 64 µg/mL; in [2], over 64 µg/mL; in [3] it was 16 µg/mL (≈ 21.8 µM); in [4], over 64 µg/mL; in data set [5] it was 32 µg/mL (≈ 43.7 µM); in data set [6], 64 µg/mL (≈ 87.3 µM).

Take `CC[C@H]1OC(=O)[C@H](C)[C@@H](O[C@H]2C[C@@](C)(OC)[C@@H](O)[C@@H](C)O2)[C@H](C)[C@@H](O[C@H]2C[C@@H](N(C)C)C[C@@H](C)O2)[C@](C)(O)C[C@@H](C)CN(C)[C@H](C)[C@@H](O)[C@]1(C)O` [compound 4, 2′-dehydroxy-5″-epi-azithromycin]: the MIC in data set [1], in data set [2], in data set [3], in [4], in data set [5] and in data set [6] was over 64 µg/mL each time. Moreover, the “Neutrophil accumulation in BALF after intranasal LPS challenge” value in [8] is given as “inhibited neutrophil accumulation”. Moreover, the “Neutrophil accumulation in BALF after cigarette-smoke challenge” value in data set [7] was “dose-dependently inhibited the accumulation of neutrophils”. Besides, the IC50 (at recombinant human CYP1A2; in [9]; on recombinant human CYP2C9; on recombinant human CYP2D6; at recombinant human CYP3A4) was over 33 µM throughout. The figures for the “systemic clearance as % of liver blood flow” value (in [10]; in the data set “Pharmacokinetics in rat”; in the data set “Pharmacokinetics in dog”) were “ca. 4.6 % of liver blood flow”, ~17.1 % of liver blood flow and ~18 % of liver blood flow, respectively. For the same compound, the “Oral F” value in data set [10] (10 mg/kg p.o., 10 mg/kg) was 12% and 12.4 ± 4.2%; in the data set “Pharmacokinetics in dog” it was 62% and 62 ± 10%. The half-life in data set [10] (male, Balb/c, whole blood) is about 11 h; in the data set “Pharmacokinetics in rat” (Sprague-Dawley, whole blood), about 15 h; in “Pharmacokinetics in dog” (beagle, in vivo) it was about 21 h. The Vd in data set [10] (male, Balb/c, whole blood, intravenous, 2 mg/mg, read-out: Vss) was determined as 2 ± 0.8 L/kg; in the data set “Pharmacokinetics in rat” (Sprague-Dawley, whole blood, intravenous, 2 mg/mg, read-out: Vss) it was 11.7 ± 1.9 L/kg; in “Pharmacokinetics in dog” (beagle, in vivo, intravenous, read-out: Vss), 6.9 ± 2 L/kg. Further, the clearance in data set [10] (male, Balb/c, whole blood, iv, 2 mg/mg, blood) is 4.1 ± 1.1 mL/min/kg; in the data set “Pharmacokinetics in rat” (Sprague-Dawley, whole blood, iv, 2 mg/mg, blood) it was 14.5 ± 8.5 mL/min/kg; in “Pharmacokinetics in dog” (beagle, in vivo, intravenous), 5.5 ± 0.9 mL/min/kg.
